In ChEMBL document CHEMBL1201862, “PubChem BioAssay data set” (2004):
Calls of active or inactive are those of the source.

Assays:
[1] = target: T1, Sentrin-specific protease 8 (Homo sapiens, UniProt Q96LD8); test: SENP8 protease inhibitors, SAR follow-up, biochemical, luminescence (AID 504501); format: functional
T1 sequence (Q96LD8 whole entry): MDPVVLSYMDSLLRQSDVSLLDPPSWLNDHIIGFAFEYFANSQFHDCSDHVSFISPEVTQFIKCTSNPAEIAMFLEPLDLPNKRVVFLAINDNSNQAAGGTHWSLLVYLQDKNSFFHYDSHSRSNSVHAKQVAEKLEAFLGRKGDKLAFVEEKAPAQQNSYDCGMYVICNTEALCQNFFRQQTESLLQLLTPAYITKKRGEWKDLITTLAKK

Caspase-3 = target: T2, Caspase-3 (Homo sapiens, UniProt P42574); test: SAR Analysis of small molecule inhibitors of Sentrin-specific proteases (SENPs) using a Caspase-3 Selectivity assay. [Related pubchem assays (depositor defined):AID2540, AID2599, AID434973, AID489001]; format: functional
T2 sequence (P42574 whole entry): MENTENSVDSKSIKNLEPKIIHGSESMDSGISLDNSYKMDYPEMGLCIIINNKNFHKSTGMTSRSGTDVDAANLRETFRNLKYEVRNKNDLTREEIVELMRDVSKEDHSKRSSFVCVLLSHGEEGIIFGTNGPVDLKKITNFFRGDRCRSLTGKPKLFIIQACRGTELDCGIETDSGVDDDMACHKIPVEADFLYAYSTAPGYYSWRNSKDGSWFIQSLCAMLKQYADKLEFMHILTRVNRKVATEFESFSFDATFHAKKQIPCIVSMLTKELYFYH

[2] = target: T3, Sentrin-specific protease 6 (Homo sapiens, UniProt Q9GZR1); test: SAR Analysis of small molecule inhibitors of Sentrin-specific protease 6 (SENP6) using a Luminescent assay. [Related pubchem assays (depositor defined):AID2582, AID2599]; format: functional
T3 sequence (Q9GZR1 whole entry): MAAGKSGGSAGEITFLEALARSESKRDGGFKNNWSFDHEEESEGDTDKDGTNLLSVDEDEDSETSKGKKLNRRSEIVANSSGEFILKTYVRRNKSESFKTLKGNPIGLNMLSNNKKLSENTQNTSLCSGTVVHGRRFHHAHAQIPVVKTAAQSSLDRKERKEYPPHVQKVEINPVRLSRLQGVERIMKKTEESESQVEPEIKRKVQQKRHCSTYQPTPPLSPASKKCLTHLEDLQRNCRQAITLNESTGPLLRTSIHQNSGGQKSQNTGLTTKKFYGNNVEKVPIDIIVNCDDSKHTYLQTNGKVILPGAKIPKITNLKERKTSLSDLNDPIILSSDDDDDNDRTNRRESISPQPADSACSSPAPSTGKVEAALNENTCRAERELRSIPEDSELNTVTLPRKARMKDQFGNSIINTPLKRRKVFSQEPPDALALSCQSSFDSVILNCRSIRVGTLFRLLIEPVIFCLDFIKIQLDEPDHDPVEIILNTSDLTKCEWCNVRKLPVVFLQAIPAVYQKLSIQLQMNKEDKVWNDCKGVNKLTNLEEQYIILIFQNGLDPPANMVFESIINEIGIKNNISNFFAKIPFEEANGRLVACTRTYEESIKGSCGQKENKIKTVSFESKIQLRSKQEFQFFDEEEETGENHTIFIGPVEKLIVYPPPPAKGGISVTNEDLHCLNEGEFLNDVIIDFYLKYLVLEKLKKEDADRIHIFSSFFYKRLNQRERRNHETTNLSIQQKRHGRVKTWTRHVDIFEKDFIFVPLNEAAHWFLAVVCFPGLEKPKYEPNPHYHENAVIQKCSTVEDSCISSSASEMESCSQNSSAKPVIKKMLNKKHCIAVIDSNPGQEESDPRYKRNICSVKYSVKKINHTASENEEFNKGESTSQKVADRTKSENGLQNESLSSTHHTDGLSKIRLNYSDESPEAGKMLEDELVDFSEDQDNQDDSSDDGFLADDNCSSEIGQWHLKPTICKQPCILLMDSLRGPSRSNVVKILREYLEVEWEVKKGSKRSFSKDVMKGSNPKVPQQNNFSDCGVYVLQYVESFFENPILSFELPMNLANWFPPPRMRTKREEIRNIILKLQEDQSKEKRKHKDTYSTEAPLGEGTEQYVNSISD

[3] = target: T4, Sentrin-specific protease 7 (Homo sapiens, UniProt Q9BQF6); test: SENP7 protease inhibitors, SAR follow-up, biochemical, luminescence (AID 504497); format: functional
T4 sequence (Q9BQF6 whole entry): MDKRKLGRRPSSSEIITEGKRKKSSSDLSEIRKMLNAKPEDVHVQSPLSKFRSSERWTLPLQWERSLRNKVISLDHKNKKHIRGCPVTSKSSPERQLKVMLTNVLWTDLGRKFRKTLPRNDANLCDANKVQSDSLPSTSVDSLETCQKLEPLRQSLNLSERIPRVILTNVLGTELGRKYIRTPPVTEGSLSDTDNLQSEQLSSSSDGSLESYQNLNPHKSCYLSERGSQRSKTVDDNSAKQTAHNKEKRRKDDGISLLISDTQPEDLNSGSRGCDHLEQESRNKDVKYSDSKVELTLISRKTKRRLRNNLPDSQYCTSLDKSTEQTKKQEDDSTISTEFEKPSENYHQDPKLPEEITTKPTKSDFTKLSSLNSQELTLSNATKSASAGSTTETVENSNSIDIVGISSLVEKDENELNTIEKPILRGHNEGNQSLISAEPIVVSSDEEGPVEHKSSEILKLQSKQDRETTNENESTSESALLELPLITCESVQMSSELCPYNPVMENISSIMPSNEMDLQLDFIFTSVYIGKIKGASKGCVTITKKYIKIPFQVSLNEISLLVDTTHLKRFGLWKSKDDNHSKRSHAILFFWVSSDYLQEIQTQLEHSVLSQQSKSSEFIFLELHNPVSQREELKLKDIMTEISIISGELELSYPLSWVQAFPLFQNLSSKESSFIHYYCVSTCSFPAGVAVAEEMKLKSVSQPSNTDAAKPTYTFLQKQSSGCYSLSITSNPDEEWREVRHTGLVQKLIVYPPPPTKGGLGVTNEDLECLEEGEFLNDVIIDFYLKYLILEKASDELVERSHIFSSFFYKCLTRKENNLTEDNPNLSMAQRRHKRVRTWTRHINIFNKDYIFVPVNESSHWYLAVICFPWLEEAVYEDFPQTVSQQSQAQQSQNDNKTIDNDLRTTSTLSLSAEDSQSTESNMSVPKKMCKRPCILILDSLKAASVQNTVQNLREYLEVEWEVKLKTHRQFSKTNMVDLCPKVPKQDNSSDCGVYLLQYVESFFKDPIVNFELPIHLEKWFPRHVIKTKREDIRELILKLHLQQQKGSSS

BJ [4] = test: cytotoxicity toward BJ-TERT fibroblasts, dose response, cell-based, RAS-independent, luminescence (AID 1933); format: functional; conditions: Homo sapiens
BJ [5] = test: cells; format: functional, cell-based; conditions: Homo sapiens
BJ [6] = test: cytotoxicity toward BJ-TERT-LT-ST fibroblasts, dose response, cell-based, RAS-independent, luminescence (AID 1935); format: functional; conditions: Homo sapiens;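 also: BJ fibroblasts immortalized with TERT plus LT and ST oncogenes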
[7] = cytotoxicity toward DRD oncogenic fibroblasts, dose response, cell-based, non-viral oncogenic, luminescence (AID 1934); format: functional; conditions: Homo sapiens
BJ [8] = test: cytotoxicity toward Ras-transformed BJeLR fibroblasts, dose response, cell-based, alamar blue fluorescence, cherrypicked samples (AID 2631); format: functional; conditions: Homo sapiens;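 also: confirmatory dose-response assay in RAS-dependent BJ fibroblasts engineered with TERT, LT and ST, with cytotoxicity read by fluorescence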
[9] = target: T5, RNA-binding protein pos-1 (Caenorhabditis elegans, UniProt G5EF15); test: inhibitors of POS-1/mex-3 RNA binding, dose response, biochemical, fluorescence polarization (AID 1964);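 also: purified POS-1 fused to maltose binding protein made in E. coli; potency of compounds blocking POS-1 binding to fluorescent RNA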
T5 sequence (G5EF15 whole entry): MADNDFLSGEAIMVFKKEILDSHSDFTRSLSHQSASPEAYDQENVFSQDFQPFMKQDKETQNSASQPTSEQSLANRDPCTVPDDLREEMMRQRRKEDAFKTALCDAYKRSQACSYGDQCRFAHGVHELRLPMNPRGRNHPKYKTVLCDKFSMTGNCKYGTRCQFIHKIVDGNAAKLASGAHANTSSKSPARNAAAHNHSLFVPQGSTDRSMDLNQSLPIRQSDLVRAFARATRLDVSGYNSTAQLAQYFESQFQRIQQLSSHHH

[10] = target: T6, Zinc finger protein mex-5 (Caenorhabditis elegans, UniProt Q9XUB2); test: MEX-5/TCR-2 RNA interaction inhibitors, dose response, biochemical, C. elegans, fluorescence polarization (AID 1960)
T6 sequence (Q9XUB2 whole entry): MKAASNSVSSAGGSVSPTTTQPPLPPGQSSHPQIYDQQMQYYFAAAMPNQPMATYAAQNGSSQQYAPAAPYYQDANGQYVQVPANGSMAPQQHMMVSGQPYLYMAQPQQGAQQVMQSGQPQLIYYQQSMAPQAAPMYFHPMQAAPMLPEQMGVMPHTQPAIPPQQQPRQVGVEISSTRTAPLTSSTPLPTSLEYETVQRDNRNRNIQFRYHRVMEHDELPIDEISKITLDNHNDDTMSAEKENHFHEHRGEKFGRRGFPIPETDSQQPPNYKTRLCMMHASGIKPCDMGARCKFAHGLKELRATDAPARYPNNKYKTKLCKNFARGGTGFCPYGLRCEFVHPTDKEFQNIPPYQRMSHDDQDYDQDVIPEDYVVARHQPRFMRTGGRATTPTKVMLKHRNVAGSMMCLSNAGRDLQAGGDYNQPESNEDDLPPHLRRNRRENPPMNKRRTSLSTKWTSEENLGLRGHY

[11] = target: T7, Endoribonuclease toxin MazF (Escherichia coli K-12, UniProt P0AE70); test: MazF toxin RNase activators, dose response, biochemical, fluorescence, single-stranded RNA substrate, uHTS hits (AID 588481); format: functional
T7 sequence (P0AE70 whole entry): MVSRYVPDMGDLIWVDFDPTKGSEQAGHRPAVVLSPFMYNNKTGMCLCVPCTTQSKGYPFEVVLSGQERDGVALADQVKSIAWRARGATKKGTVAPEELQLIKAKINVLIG

[12] = target: T7, Endoribonuclease toxin MazF; test: fluorescent RNA oligo signal without MazF, dose response, counter-screen for MazEF activator project, biochemical, fluorescence, single-stranded RNase substrate (AID 588502); format: functional

| Structure (SMILES) | IC50 [1] | IC50 (Caspase-3) | IC50 [2] | IC50 [3] | other results |
| --- | --- | --- | --- | --- | --- |
| CN(C)c1nc(NCc2ccccc2)nc(N/N=C/c2ccc(Br)cc2)n1 | > 99 µM (inactive) | > 99 µM (inactive) | > 99 µM (inactive) | > 99 µM (inactive) |  |
| O=[N+]([O-])c1ccccc1CNCCc1c[nH]c2ccccc12 | > 99 µM (inactive) | > 99 µM (inactive) | > 99 µM (inactive) | > 99 µM (inactive) |  |
| CSc1cc(-c2ccccc2)n(Cc2ccccc2Cl)c(=O)c1C#N |  |  |  |  | EC50 (BJ [4]): 10.1 µM (inconclusive); EC50 (BJ [5]): 43.8 µM (active); EC50 (BJ [6]): 33.6 µM (inconclusive); EC50 [7]: 3.67 µM (active); EC50 (BJ [8]): 1.92 µM (active) |
| CCCCOc1cccc(C2C(C(=O)c3ccc(C)o3)=C(O)C(=O)N2c2nnc(C)s2)c1 (stereo unspecified) |  |  |  |  | EC50 [9]: 102 µM (active); EC50 [10]: 77.4 µM (active); EC50 [11]: > 99 µM (inactive); EC50 [12]: 20.4 µM (inactive) |
| Cc1cccc(N/N=C/c2c[nH]c3ccccc23)c1 | 34.5 µM (active) | > 99 µM (inactive) | 32 µM (active) | 18 µM (active) |  |
